Experimental data taken from the supplement of paper PMC13380429.

How the values were obtained:
Settings in all cases: 72 h
HepG2 [1] = assay: relative viability EC50 (midpoint between 100% and the lowest measured viability); higher = less toxic
Calu-3 [2] = assay: as above
U2OS [3] = assay: as above
Vero E6 [4] = assay: as above
HepG2 [5] = assay: drug sensitivity score (DSS) for viability; higher = more toxic; extreme values may be limits of the assay
Calu-3 [6] = assay: as above
Caco-2 [7] = assay: as above
U2OS [8] = assay: as above
Vero E6 [9] = assay: as above
HepG2 [10] = assay: cell viability relative to DMSO; higher = less toxic
Calu-3 [11] = assay: as above
Caco-2 [12] = assay: as above
U2OS [13] = assay: as above
Vero E6 [14] = assay: as above
Caco-2 [15] = assay: relative viability EC50 (midpoint between 100% and the lowest measured viability); higher = less toxic

Structure (SMILES) | relative viability EC50 (HepG2 [1]) [µM] | relative viability EC50 (Calu-3 [2]) [µM] | relative viability EC50 (U2OS [3]) [µM] | relative viability EC50 (Vero E6 [4]) [µM] | drug sensitivity score (HepG2 [5]) | drug sensitivity score (Calu-3 [6]) | drug sensitivity score (Caco-2 [7]) | drug sensitivity score (U2OS [8]) | drug sensitivity score (Vero E6 [9]) | cell viability (HepG2 [10]; 1 nM) [%] | cell viability (HepG2 [10]; 10 nM) [%] | cell viability (HepG2 [10]; 100 nM) [%] | cell viability (HepG2 [10]; 1000 nM) [%] | cell viability (HepG2 [10]; 10000 nM) [%] | cell viability (Calu-3 [11]; 1 nM) [%] | cell viability (Calu-3 [11]; 10 nM) [%] | cell viability (Calu-3 [11]; 100 nM) [%] | cell viability (Calu-3 [11]; 1000 nM) [%] | cell viability (Calu-3 [11]; 10000 nM) [%] | cell viability (Caco-2 [12]; 1 nM) [%] | cell viability (Caco-2 [12]; 10 nM) [%] | cell viability (Caco-2 [12]; 100 nM) [%] | cell viability (Caco-2 [12]; 1000 nM) [%] | cell viability (Caco-2 [12]; 10000 nM) [%] | cell viability (U2OS [13]; 1 nM) [%] | cell viability (U2OS [13]; 10 nM) [%] | cell viability (U2OS [13]; 100 nM) [%] | cell viability (U2OS [13]; 1000 nM) [%] | cell viability (U2OS [13]; 10000 nM) [%] | cell viability (Vero E6 [14]; 1 nM) [%] | cell viability (Vero E6 [14]; 10 nM) [%] | cell viability (Vero E6 [14]; 100 nM) [%] | cell viability (Vero E6 [14]; 1000 nM) [%] | cell viability (Vero E6 [14]; 10000 nM) [%] | relative viability EC50 (Caco-2 [15]) [µM]
O=C(c1ccc(F)c(F)c1Nc1ccc(I)cc1F)N1CC(O)([C@@H]2CCCCN2)C1 [cobimetinib] | 0.0341 | 0.238 | 1.43 | 0.0591 | 24.5 | 11.9 | 8.3 | 7.4 | 13 | 94.3 | 86.7 | 32.8 | 24.5 | 17.1 | 93.2 | 86.6 | 81.4 | 50.1 | 32.7 | 89.5 | 82.8 | 84.8 | 69.1 | 63.1 | 96.5 | 94.5 | 94.3 | 75.8 | 23.6 | 90.2 | 86.1 | 72.9 | 50.2 | 45.7 | 
O=C(Nc1cc(-c2ccccc2)nn1-c1ccccc1F)c1ccc([N+](=O)[O-])cc1 [VU1545] | > 10 | > 10 |  | > 10 | 0 | 0 |  |  | 0 | 107 | 83.9 | 104 | 89.6 | 97.5 | 101 | 97.7 | 92.9 | 98 | 87.5 |  |  |  |  |  |  |  |  |  |  | 111 | 105 | 107 | 108 | 99.9 | 
O=C1OCCN1/N=C/c1ccc([N+](=O)[O-])o1 [furazolidone] |  | > 10 | > 10 | > 10 | 0.8 | 0 | 0.1 | 0 | 0 | 99.3 | 104 | 102 | 111 | 70.5 | 111 | 97.6 | 100 | 101 | 110 | 101 | 90.2 | 95.6 | 93.6 | 86.1 | 101 | 93.2 | 97.1 | 96.6 | 96.5 | 106 | 97.8 | 105 | 98.2 | 97.4 | > 10
CN(C)N(C)C(=O)[C@@]1(Cc2ccccc2)CCCN(C(=O)[C@@H](Cc2c[nH]c3ccccc23)NC(=O)C(C)(C)N)C1 [anamorelin] | > 10 | > 10 | > 10 | > 10 | 0 | 0 |  | 0 | 0 | 113 | 99.6 | 106 | 102 | 103 | 85.1 | 86.9 | 91.7 | 94.4 | 89.8 |  |  |  |  |  | 103 | 100 | 104 | 102 | 99.5 | 103 | 107 | 101 | 104 | 95.4 | 
Oc1cc2c(cc1O)CN(C(=S)NCCc1ccc(Cl)cc1)CCC2 [capsazepine] | > 10 | > 10 | > 10 | > 10 | 0.1 | 0 | 2.5 | 0 | 0 | 103 | 114 | 107 | 100 | 86.9 | 107 | 103 | 110 | 104 | 92.6 | 90.9 | 98.4 | 91.2 | 90.2 | 65.8 | 98.2 | 103 | 97.3 | 101 | 97.7 | 101 | 101 | 101 | 92.2 | 98.8 | 
O=C1NC(=O)c2cc(Nc3ccc(F)cc3)c(Nc3ccc(F)cc3)cc21 | 1.91 | > 10 | > 10 | > 10 | 4 | 0.5 | 2.2 | 0 | 0 | 101 | 93.9 | 101 | 91.8 | 49.7 | 106 | 106 | 94.7 | 106 | 77.8 | 93.9 | 88.6 | 95.2 | 93.3 | 70.2 | 95 | 100 | 97.2 | 101 | 87.9 | 96.9 | 97.1 | 99.9 | 93.5 | 103 | 
Cc1ccc(C(=O)N(CCCN)[C@@H](c2nc3cc(Cl)ccc3c(=O)n2Cc2ccccc2)C(C)C)cc1 [ispinesib] | 0.0173 | 2.29 | 0.0446 | 0.029 | 25.4 | 6.9 | 12.1 | 19.4 | 19.5 | 98.7 | 55.8 | 38.7 | 40 | 18.8 | 97.3 | 88.5 | 90.8 | 90 | 5.4 | 93.7 | 81.5 | 68.8 | 64 | 63.1 | 104 | 92.1 | 47.6 | 43.2 | 31.3 | 103 | 94 | 42.4 | 40.8 | 38.1 | 
